Experimental data from US9139529B2, “Substituted quinoxalines as sodium channel modulators” (VERTEX PHARMACEUTICALS INCORPORATED, priority 2013, dated 2015).

The molecules below were run against human Nav1.8 (Homo sapiens (Human), UniProt Q9Y5Y9) (assay: E-VIPR optical membrane potential assay with electrical stimulation). Details: HEK cells expressing human Nav1.8.
Type: cell-based
Excerpt: Assays for Detecting and Measuring NaV Inhibition Properties of Compounds E-VIPR Optical Membrane Potential Assay Method with Electrical Stimulation
Sodium channels are voltage-dependent proteins that can be activated by inducing membrane voltage changes by applying electric fields. The electrical stimulation instrument and methods of use are described in Ion Channel Assay Methods PCT/US01/21652, herein incorporated by reference and are referred to as E-VIPR. The instrument comprises a microtiter plate handler, an optical system for exciting the coumarin dye while simultaneously recording the coumarin and oxonol emissions, a waveform generator, a current- or voltage-controlled amplifier, and a device for inserting electrodes in well. Under integrated computer control, this instrument passes user-programmed electrical stimulus protocols to cells within the wells of the microtiter plate.
24 hours before the assay on E-VIPR, HEK cells expressing human Nav1.8 were seeded in 384-well poly-lysine coated plates at 15,000-20,000 cells per well. HEK cells were grown in media (exact composition is specific to each cell type and NaV subtype) supplemented with 10% FBS (Fetal Bovine Serum, qualified; GibcoBRL #16140-071) and 1% Pen-Strep (Penicillin-Streptomycin; GibcoBRL #15140-122). Cells were grown in vented cap flasks, in 90% humidity and 5% CO2.
1) Pre-spotted compounds (in neat DMSO) into compound plates. Vehicle control (neat DMSO), the positive control (20 mM DMSO stock tetracaine, 125 μM final in assay) and test compounds were added to each well at 160× desired final concentration in neat DMSO. Final compound plate volume was 80 μL (80-fold intermediate dilution from 1 μL DMSO spot; 160-fold final dilution after transfer to cell plate). Final DMSO concentration for all wells in assay was 0.625%.
2) Prepared Hexyl Dye Solution.
3) Prepared cell plates. On the day of the assay, medium was aspirated and cells were washed three times with 100 μL of Bath1 Solution, maintaining 25 μL residual volume in each well.
4) Dispensed 25 μL per well of Hexyl Dye Solution into cell plates. Incubated for 20-35 minutes at room temp or ambient conditions.
5) Dispensed 80 μL per well of Bath1 into compound plates. Acid Yellow-17 (1 mM) was added and Potassium Chloride was altered from 4.5 to 20 mM depending on the NaV subtype and assay sensitivity.
6) Washed cell plates three times with 100 μL per well of Bath1, leaving 25 μL of residual volume. Then transferred 25 uL per well from Compound Plates to Cell Plates. Incubated for 20-35 minutes at room temp/ambient condition.
7) Read Plate on E-VIPR. Used the current-controlled amplifier to deliver stimulation wave pulses for 10 seconds and a scan rate of 200 Hz. A pre-stimulus recording was performed for 0.5 seconds to obtain the un-stimulated intensities baseline. The stimulatory waveform was followed by 0.5 seconds of post-stimulation recording to examine the relaxation to the resting state.
Data was analyzed and reported as normalized ratios of emission intensities measured in the 460 nm and 580 nm channels. The response as a function of time was reported as the ratios obtained using the following formula: […]
The data was further reduced by calculating the initial (Ri) and final (Rf) ratios. These were the average ratio values during part or all of the pre-stimulation period, and during sample points during the stimulation period. The response to the stimulus R=Rf/Ri was then calculated and reported as a function of time.
Control responses were obtained by performing assays in the presence of a compound with the desired properties (positive control), such as tetracaine, and in the absence of pharmacological agents (negative control). Responses to the negative (N) and positive (P) controls were calculated as above. The compound antagonist activity A is defined as:
[formula] where R is the ratio response of the test compound

Chain of human Nav1.8 (Q9Y5Y9 whole entry): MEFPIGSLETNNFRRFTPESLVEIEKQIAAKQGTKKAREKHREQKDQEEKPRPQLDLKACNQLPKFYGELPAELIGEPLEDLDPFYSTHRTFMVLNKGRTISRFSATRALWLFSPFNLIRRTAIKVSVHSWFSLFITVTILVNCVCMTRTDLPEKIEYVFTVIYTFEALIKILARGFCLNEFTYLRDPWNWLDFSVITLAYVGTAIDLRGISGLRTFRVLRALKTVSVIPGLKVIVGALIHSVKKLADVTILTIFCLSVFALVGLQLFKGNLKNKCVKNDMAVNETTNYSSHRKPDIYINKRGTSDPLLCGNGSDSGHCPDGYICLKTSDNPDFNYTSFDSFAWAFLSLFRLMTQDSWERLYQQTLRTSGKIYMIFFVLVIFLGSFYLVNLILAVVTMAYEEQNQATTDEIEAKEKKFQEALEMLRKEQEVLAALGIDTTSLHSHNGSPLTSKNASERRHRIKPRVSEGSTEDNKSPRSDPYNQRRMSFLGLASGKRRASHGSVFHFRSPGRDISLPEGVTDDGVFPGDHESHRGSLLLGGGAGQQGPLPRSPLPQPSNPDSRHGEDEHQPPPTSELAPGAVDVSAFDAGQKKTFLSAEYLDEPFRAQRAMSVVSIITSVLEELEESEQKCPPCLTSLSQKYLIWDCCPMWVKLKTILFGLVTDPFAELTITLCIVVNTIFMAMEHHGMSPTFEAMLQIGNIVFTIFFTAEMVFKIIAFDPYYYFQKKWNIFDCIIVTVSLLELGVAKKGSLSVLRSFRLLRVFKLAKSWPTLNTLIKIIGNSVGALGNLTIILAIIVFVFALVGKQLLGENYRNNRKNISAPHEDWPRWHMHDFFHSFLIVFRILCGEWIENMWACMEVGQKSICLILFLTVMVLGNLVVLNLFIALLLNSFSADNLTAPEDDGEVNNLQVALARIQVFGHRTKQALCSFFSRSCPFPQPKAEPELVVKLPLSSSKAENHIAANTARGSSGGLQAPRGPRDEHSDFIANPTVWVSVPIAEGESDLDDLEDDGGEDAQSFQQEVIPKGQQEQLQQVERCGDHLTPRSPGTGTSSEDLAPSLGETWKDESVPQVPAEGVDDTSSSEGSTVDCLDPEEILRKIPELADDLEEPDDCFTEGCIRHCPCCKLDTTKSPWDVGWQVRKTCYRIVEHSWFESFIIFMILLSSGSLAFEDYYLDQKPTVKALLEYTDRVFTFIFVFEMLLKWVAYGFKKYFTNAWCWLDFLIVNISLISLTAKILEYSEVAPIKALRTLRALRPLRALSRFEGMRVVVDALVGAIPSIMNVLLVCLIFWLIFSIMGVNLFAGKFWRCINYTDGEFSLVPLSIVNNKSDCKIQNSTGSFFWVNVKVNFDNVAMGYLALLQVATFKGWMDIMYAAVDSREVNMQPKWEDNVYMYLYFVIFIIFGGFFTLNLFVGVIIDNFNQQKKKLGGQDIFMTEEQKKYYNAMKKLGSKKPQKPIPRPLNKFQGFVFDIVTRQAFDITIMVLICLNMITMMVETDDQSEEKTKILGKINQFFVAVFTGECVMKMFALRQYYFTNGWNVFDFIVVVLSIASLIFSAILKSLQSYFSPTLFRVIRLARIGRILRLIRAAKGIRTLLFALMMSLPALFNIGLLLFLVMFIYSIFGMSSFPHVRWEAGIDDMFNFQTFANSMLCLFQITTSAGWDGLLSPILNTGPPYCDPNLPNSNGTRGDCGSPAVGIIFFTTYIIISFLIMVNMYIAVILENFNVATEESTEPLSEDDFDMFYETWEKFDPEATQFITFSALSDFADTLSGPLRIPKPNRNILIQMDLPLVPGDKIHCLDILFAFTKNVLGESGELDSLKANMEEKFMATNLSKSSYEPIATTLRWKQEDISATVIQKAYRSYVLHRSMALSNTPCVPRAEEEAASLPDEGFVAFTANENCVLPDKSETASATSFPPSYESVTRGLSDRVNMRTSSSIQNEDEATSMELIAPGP

Row | Compound | IC50
1 | COc1cc(F)ccc1Oc1nc2ccccc2nc1C(=O)Nc1ccc2[nH]c(CO)nc2c1 [Compound 44, 3-(4-fluoro-2-methoxyphenoxy)-N-(2-(hydroxymethyl)-1H-benzo[d]imidazol-5-yl)quinoxaline-2-carboxamide] | 425 nM
2 | COc1cc(F)ccc1Oc1nc2ccccc2nc1C(=O)Nc1cn[nH]c1 [Compound 43, 3-(4-fluoro-2-methoxyphenoxy)-N-(1H-pyrazol-4-yl)quinoxaline-2-carboxamide] | 220 nM
3 | COc1cc(F)ccc1Oc1nc2ccccc2nc1C(=O)Nc1cccc(-c2nnn[nH]2)c1 [Compound 45, N-(3-(1H-tetrazol-5-yl)phenyl)-3-(4-fluoro-2-methoxyphenoxy)quinoxaline-2-carboxamide] | 1650 nM
4 | COc1cc(F)ccc1Oc1nc2ccccc2nc1C(=O)Nc1ccnc(C(=O)O)c1 [Compound 34, 4-(3-(4-fluoro-2-methoxyphenoxy)quinoxaline-2-carboxamido)picolinic acid] | 16 nM
5 | NS(=O)(=O)c1cccc(NC(=O)c2cc3ccccc3nc2Oc2ccc(F)cc2F)c1 [Compound 65, 2-(2,4-difluorophenoxy)-N-(3-sulfamoylphenyl)quinoline-3-carboxamide] | 11 nM
6 | COc1ccc(Oc2nc3ccccc3nc2C(=O)Nc2cccc(S(N)(=O)=O)c2)c(Cl)c1 [Compound 4, 3-(2-chloro-4-methoxyphenoxy)-N-(3-sulfamoylphenyl)quinoxaline-2-carboxamide] | 4 nM
7 | NS(=O)(=O)c1cccc(NC(=O)c2cc3ccccc3nc2Oc2ccc(F)cc2Cl)c1 [Compound 66, 2-(2-chloro-4-fluorophenoxy)-N-(3-sulfamoylphenyl)quinoline-3-carboxamide] | 2 nM
8 | Cc1cc(F)ccc1Oc1nc2ccccc2nc1C(=O)Nc1cccc(S(N)(=O)=O)c1 [Compound 14, 3-(4-fluoro-2-methylphenoxy)-N-(3-sulfamoylphenyl)quinoxaline-2-carboxamide] | 7 nM
9 | COc1ccc(Oc2nc3ccccc3nc2C(=O)Nc2cccc(S(N)(=O)=O)c2)c(OC)c1 [Compound 8, 3-(2,4-dimethoxyphenoxy)-N-(3-sulfamoylphenyl)quinoxaline-2-carboxamide] | 6 nM
10 | NS(=O)(=O)c1cccc(NC(=O)c2cc3ccccc3nc2Oc2ccccc2)c1 [Compound 64, 2-phenoxy-N-(3-sulfamoylphenyl)quinoline-3-carboxamide] | 81 nM
11 | COc1ccc(Oc2nc3ccccc3nc2C(=O)Nc2ccc(C(=O)O)nc2)c(F)c1 [Compound 21, 5-(3-(2-fluoro-4-methoxyphenoxy)quinoxaline-2-carboxamido)picolinic acid] | 235 nM
12 | COc1cc(F)ccc1Oc1nc2ccccc2cc1C(=O)Nc1cccc(S(N)(=O)=O)c1 [Compound 61, 2-(4-fluoro-2-methoxyphenoxy)-N-(3-sulfamoylphenyl)quinoline-3-carboxamide] | 11 nM
13 | COc1ccc(Oc2nc3ccccc3cc2C(=O)Nc2cccc(S(N)(=O)=O)c2)cc1F [Compound 62, 2-(3-fluoro-4-methoxyphenoxy)-N-(3-sulfamoylphenyl)quinoline-3-carboxamide] | 30 nM
14 | COc1cc(F)ccc1Oc1nc2ccccc2nc1C(=O)Nc1cccc(C#N)c1 [Compound 56, N-(3-cyanophenyl)-3-(4-fluoro-2-methoxyphenoxy)quinoxaline-2-carboxamide] | 30 nM
15 | COc1cc(Cl)ccc1Oc1nc2ccccc2cc1C(=O)Nc1cccc(S(N)(=O)=O)c1 [Compound 73, 2-(4-chloro-2-methoxyphenoxy)-N-(3-sulfamoylphenyl)quinoline-3-carboxamide] | 31 nM
16 | COc1ccc(Oc2nc3ccccc3nc2C(=O)Nc2cccc(S(N)(=O)=O)c2)cc1F [Compound 7, 3-(3-fluoro-4-methoxyphenoxy)-N-(3-sulfamoylphenyl)quinoxaline-2-carboxamide] | 42 nM

Row | Compound | IC50
17 | O=C(O)c1ccc(NC(=O)c2nc3ccccc3nc2Oc2ccc(F)cc2F)cn1 [Compound 29, 5-(3-(2,4-difluorophenoxy)quinoxaline-2-carboxamido)picolinic acid] | 185 nM
18 | O=C(O)c1ccc(NC(=O)c2nc3ccccc3nc2Oc2ccccc2)cn1 [Compound 20, 5-(3-phenoxyquinoxaline-2-carboxamido)picolinic acid] | 1080 nM
19 | NS(=O)(=O)c1cccc(NC(=O)c2nc3ccccc3nc2Oc2ccccc2)c1 [Compound 13, 3-phenoxy-N-(3-sulfamoylphenyl)quinoxaline-2-carboxamide] | 92 nM
20 | NS(=O)(=O)c1cccc(NC(=O)c2nc3ccccc3nc2Oc2ccc(F)cc2Cl)c1 [Compound 6, 3-(2-chloro-4-fluorophenoxy)-N-(3-sulfamoylphenyl)quinoxaline-2-carboxamide] | 3 nM
21 | COc1cc(F)ccc1Oc1nc2ccccc2nc1C(=O)Nc1ccc(C#N)nc1 [Compound 51, N-(6-cyanopyridin-3-yl)-3-(4-fluoro-2-methoxyphenoxy)quinoxaline-2-carboxamide] | 37 nM
22 | O=C(O)c1ccc(NC(=O)c2nc3ccccc3nc2Oc2ccc(OCC(F)(F)F)cc2)cn1 [Compound 22, 5-(3-(4-(2,2,2-trifluoroethoxy)phenoxy)quinoxaline-2-carboxamido)picolinic acid] | 180 nM
23 | Cc1cc(Cl)ccc1Oc1nc2ccccc2nc1C(=O)Nc1ccc(C(=O)O)nc1 [Compound 25, 5-(3-(4-chloro-2-methylphenoxy)quinoxaline-2-carboxamido)picolinic acid] | 56 nM
24 | COc1cc(F)ccc1Oc1nc2ccccc2nc1C(=O)Nc1cccc(C(N)=O)c1 [Compound 59, N-(3-carbamoylphenyl)-3-(4-fluoro-2-methoxyphenoxy)quinoxaline-2-carboxamide] | 180 nM
25 | COc1cc(F)ccc1Oc1nc2ccccc2nc1C(=O)Nc1ccc2[nH]nnc2c1 [Compound 42, N-(1H-benzo[d][1,2,3]triazol-5-yl)-3-(4-fluoro-2-methoxyphenoxy)quinoxaline-2-carboxamide] | 96 nM
26 | COc1cc(Cl)ccc1Oc1nc2ccccc2nc1C(=O)Nc1ccc(C(=O)O)nc1 [Compound 23, 5-(3-(4-chloro-2-methoxyphenoxy)quinoxaline-2-carboxamido)picolinic acid] | 19 nM
27 | COc1ccc(Oc2nc3ccccc3nc2C(=O)Nc2ccc(C(=O)O)nc2)cc1F [Compound 27, 5-(3-(3-fluoro-4-methoxyphenoxy)quinoxaline-2-carboxamido)picolinic acid] | 185 nM
28 | COc1cc(F)ccc1Oc1nc2ccccc2nc1C(=O)Nc1nc(C(=O)O)cs1 [Compound 37, 2-(3-(4-Fluoro-2-methoxyphenoxy)quinoxaline-2-carboxamido)thiazole-4-carboxylic acid] | 450 nM
29 | COc1ccc(Oc2nc3ccccc3cc2C(=O)Nc2cccc(S(N)(=O)=O)c2)c(Cl)c1 [Compound 69, 2-(2-chloro-4-methoxyphenoxy)-N-(3-sulfamoylphenyl)quinoline-3-carboxamide] | 15 nM
30 | COc1cc(F)ccc1Oc1nc2ccccc2nc1C(=O)Nc1cccc(S(N)(=O)=O)c1 [Compound 2, 3-(4-fluoro-2-methoxyphenoxy)-N-(3-sulfamoylphenyl)quinoxaline-2-carboxamide] | 6 nM
31 | NS(=O)(=O)c1cccc(NC(=O)c2nc3ccccc3nc2Oc2ccc(OCC(F)(F)F)cc2)c1 [Compound 15, N-(3-sulfamoylphenyl)-3-(4-(2,2,2-trifluoroethoxy)phenoxy)quinoxaline-2-carboxamide] | 66 nM
